From patent US11447495B2, “Substituted benzo[f]imidazo[1,5-a][1,4]diazepines as GABA(a) receptor modulators” (priority 2016, dated 2022)

Legend:
[1] = test system: mucin; assay: Mucin production in airway epithelium, morphometric quantification; assay type: in vivo, Balb/c mice; conditions: 100 mg/kg twice for five days
Procedure: Pharmacodynamic effects of compounds in respect to mucus production were investigated after the AHR measurement by harvesting the lungs of treated and non-treated Ova S/C mice followed by formalin fixation and paraffin embedding. Sections were prepared from one lobe (including large and small airways) and processed for standard H&E (for general histopathology and inflammation) and PAS (for mucous cell; as cells/mm of basement membrane) staining. FIGS. 10A-10B show compound effects on mucin production: (A) Morphometric quantification of mucin volume density and (B) representative images of mucin (red) in the airway epithelium (green) with periodic acid fluorescent Schiff's stain. Balb/c mice were administered compounds at 100 mg/kg twice for five days. Data represent mean±SEM from 5-7 mice in each group. Scale bar represents 100 μm.

[2] = test system: CD4+ T-cells isolated from ova s/c BALB/c mice spleen; assay: Automated patch clamp of CD4+ T cells with 600 nM GABA; assay type: cell-based, mouse; conditions: increasing concentrations of compound, 3 seconds
Procedure: Direct interaction between compounds and CD4^+ T cells may be investigated by electrophysiology. Therefore, CD4^+ T cells may be isolated from the spleen of asthmatic mice and treated with compounds during an automated patch clamp experiment.
To determine the effect of compounds on lymphocytes, CD4^+ T cells from Ova S/C mice were isolated and their interaction with compounds was measured by automated patch clamp. Splenocytes from ova s/c BALB/c mice were prepared following BD Biosciences instructions for preparation of murine splenocytes and red blood cell lysed using BD Pharm Lyse™ lysing solution (BD Biosciences, San Jose, Calif.). Cells were maintained in suspension in RPMI 1640 medium with L-glutamine (Thermo Fisher Scientific Inc., Rockford, Ill.) supplemented with 10% (v/v) fetal bovine serum, 10 μM 2-mercaptoethanol and 1% penicillin/streptomycin in the presence or absence of 100 μg/mL ovalbumin. The cells were maintained in 5% CO2, 95% humidified air at 37° C. for 48 hours. The IonFlux plate layout consists of units of 12 wells: two wells contain intracellular solution (ICS containing […], 1 mM CaCl2, 1 mM MgCl2, 11 mM EGTA, 10 mM HEPES, pH 7.2 with CsOH), one contains cells diluted in extracellular solution (ECS containing 140 mM NaCl, 5 mM […] KCl, 2 mM CaCl2, 1 mM MgCl2, 5 mM D-glucose monohydrate, and 10 mM HEPES, pH 7.4 with NaOH), eight contain the compounds of interest diluted in ECS, and one well is for waste collection. Cells are captured from suspension by applying suction to microscopic channels in ensemble recording arrays. Once the array is fully occupied, the applied suction breaks the membranes of captured cells, which establishes whole cell voltage clamp. For compound applications, pressure is applied to the appropriate compound wells, which introduces the compound into the extracellular solution rapidly flowing over the cells. For recording GABAAR induced currents, cell arrays were voltage clamped at a hyperpolarizing holding potential of −50 mV. Prior to use on the automated patch clamp, cells were centrifuged at 380 g for 5 minutes and resuspended gently in ECS. This was repeated two more times before the cells were dispensed into the plate. GABA and muscimol were diluted to appropriate concentrations in ECS to appropriate concentrations before application and data recorded. […] The concentration-dependent current responses of CD4+ T-cells in the presence of 600 nM GABA and increasing concentration of compounds were carried out with an N of 16 and normalized to the current response of 600 nM GABA.

[3] = test system: HEK293; assay: Cytotoxicity, CellTiter-Glo cell viability assay, kidney cells; assay type: cell-based, human; conditions: human, HEK293 (HEK293T) human embryonic kidney cells
Procedure: The cytotoxicity of compounds may be evaluated by treating HEK293 human embryonic kidney cells with increasing concentrations of compounds for 24-48 hours followed by the quantification of living cells using Cell-Titer Glo (Promega).
Compounds with increased cytotoxicity can be identified using an in vitro cytotoxicity assay. Therefore, human embryonic kidney 293T (HEK293T) cell lines were purchased (ATCC) and cultured in 75 cm2 flasks (CellStar). Cells were grown in DMEM/High Glucose (Hyclone, #SH3024301) media to which non-essential amino acids (Hyclone, #SH30238.01), 10 mM HEPES (Hyclone, #SH302237.01), 5×106 units of penicillin and streptomycin (Hyclone, #SV30010), and 10% of heat inactivated fetal bovine serum (Gibco, #10082147) were added. Cells were harvested using 0.05% Trypsin (Hyclone, #SH3023601). The cell viability assay was evaluated using CellTiter-Glo™ Luminescent Cell Viability Assay Kit (Promega, Madison, Wis.), which contains luciferase and all its substrate except ATP. The controls for the cytotoxicity assay used were (E)-10-(bromotriphenylphosphoranyl)decyl 4-(4-(tert-butyl)phenyl)-4-oxobut-2-enoate (400 μM in DMSO, positive control) and DMSO (negative control). All luminescence readings were performed on a Tecan Infinite M1000 plate reader. Small volume transfers were performed on the Tecan Freedom EVO liquid handling system with a 100 nL pin tool transfer (V&P Scientific). Serial dilutions were done in 96-well polypropylene plates (Corning, #3365) and assays were conducted in 384-well white optical bottom plates. The assays were carried out in quadruplet in three independent runs. The data were normalized to the controls and if possible analyzed by nonlinear regression (GraphPad Prism).

SMILES	production of mucin [1]	GABA-induced membrane current of CD4+ T-cells [2]	LD50 HEK293 (Kidney) [3] [µM]
C[C@H]1N=C(c2ccccc2F)c2cc(Br)ccc2-n2cnc(C(=O)O)c21 [GL-II-93, (R)-8-bromo-6-(2-fluorophenyl)-4-methyl-4H-benzo[f]imidazo[1,5-a][1,4]diazepine-3-carboxylic acid]	did not change the production of mucin	evoked a very pronounced GABA-induced transmembrane current	>400
CCOC(=O)c1ncn2c1[C@@H]1CCCN1C(=O)c1cc(O)ccc1-2 [RJ-02-50, ethyl (S)-7-hydroxy-9-oxo-11,12,13,13a-tetrahydro-9H-benzo[e]imidazo[5,1-c]pyrrolo[1,2-a][1,4]diazepine-1-carboxylate]	did not change the production of mucin	potentiated the GABA-induced membrane current more than SH-053-2F′F—R-CH3-Acid	>400
O=C1c2cc(O)ccc2-n2cnc(-c3cnco3)c2[C@@H]2CCCN12 [RJ-03-30, (S)-7-hydroxy-1-(oxazol-5-yl)-11,12,13,13a-tetrahydro-9H-benzo[e]imidazo[5,1-c]pyrrolo[1,2-a][1,4]diazepin-9-one]		evoked a very pronounced GABA-induced transmembrane current	>400
C#Cc1ccc2c(c1)C(c1ccccc1F)=N[C@H](C)c1c(C(=O)O)ncn1-2 [SH-053-2′F-R-CH3-Acid, (R)-8-ethynyl-6-(2-fluorophenyl)-4-methyl-4H-benzo[f]imidazo[1,5-a][1,4]diazepine-3-carboxylic acid]	did not change the production of mucin	RJ-02-50 potentiated the GABA-induced membrane current more than SH-053-2F′F—R-CH3-Acid	>400
